Experimental data from patent US11541050B2, “Pyrimidine derivatives for the treatment of viral infections” (JANSSEN SCIENCES IRELAND UC, priority 2011, dated 2023).

Assays:
[1] = biological target: T1, human TLR8 (wild type sequence) (Homo sapiens, UniProt Q9NR97); test: TLR8 cellular NFκB-luc reporter assay, wild type TLR8; format: cell-based; set-up: unit not given here; conditions: lowest effective concentration; for TLR 8 wt LEC: wild type TLR8 (compounds 74 onward)
T1 construct: expressed in transfected cells; host or cells: HEK293
T1 sequence (Q9NR97 27-1041): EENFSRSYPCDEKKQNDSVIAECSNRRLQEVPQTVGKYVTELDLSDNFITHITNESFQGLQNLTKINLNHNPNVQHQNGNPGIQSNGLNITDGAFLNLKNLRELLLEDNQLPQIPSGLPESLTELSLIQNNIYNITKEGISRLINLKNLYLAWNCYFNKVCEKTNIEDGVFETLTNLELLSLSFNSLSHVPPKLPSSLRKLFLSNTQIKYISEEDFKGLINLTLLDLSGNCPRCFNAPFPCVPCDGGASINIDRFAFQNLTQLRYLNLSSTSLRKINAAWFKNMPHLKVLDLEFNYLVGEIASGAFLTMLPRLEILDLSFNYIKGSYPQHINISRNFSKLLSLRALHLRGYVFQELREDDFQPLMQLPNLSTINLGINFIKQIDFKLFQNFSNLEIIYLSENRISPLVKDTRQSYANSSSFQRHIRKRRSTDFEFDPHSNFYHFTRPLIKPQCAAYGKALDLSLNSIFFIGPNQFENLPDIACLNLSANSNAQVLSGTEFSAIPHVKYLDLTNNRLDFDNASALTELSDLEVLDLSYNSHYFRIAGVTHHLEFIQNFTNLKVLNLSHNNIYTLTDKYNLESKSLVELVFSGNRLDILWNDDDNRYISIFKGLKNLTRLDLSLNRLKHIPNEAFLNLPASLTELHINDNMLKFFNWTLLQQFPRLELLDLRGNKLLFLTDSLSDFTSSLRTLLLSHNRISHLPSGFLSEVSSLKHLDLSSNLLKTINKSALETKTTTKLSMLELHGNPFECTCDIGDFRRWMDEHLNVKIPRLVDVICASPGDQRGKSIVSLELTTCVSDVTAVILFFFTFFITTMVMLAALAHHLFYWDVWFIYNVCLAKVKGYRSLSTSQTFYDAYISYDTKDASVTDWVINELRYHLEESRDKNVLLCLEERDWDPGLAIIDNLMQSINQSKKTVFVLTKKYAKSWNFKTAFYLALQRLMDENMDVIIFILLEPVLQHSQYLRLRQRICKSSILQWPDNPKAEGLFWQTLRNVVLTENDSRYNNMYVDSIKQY
Method: (§1) The ability of compounds to activate human TLR7 and/or TLR8 was assessed in a cellular reporter assay using HEK293 cells transiently transfected with a TLR7 or TLR8 expression vector and NFκB-luc reporter construct. In one instance the TLR expression construct expresses the respective wild type sequence or a mutant sequence comprising a deletion in the second leucine-rich repeat of the TLR.
(§2) Briefly, HEK293 cells were grown in culture medium (DMEM supplemented with 10% FCS and 2 mM Glutamine). For transfection of cells in 10 cm dishes, cells were detached with Trypsin-EDTA, transfected with a mix of CMV-TLR7 or TLR8 plasmid (750 ng), NFκB-luc plasmid (375 ng) and a transfection reagent and incubated for 48 hours at 37° C. in a humidified 5% CO2 atmosphere. Transfected cells were then detached with Trypsin-EDTA, washed in PBS and resuspended in medium to a density of 1.67×10^5 cells/mL. Thirty microliters of cells were then dispensed into each well in 384-well plates, where 10 μL of compound in 4% DMSO was already present. Following 6 hours incubation at 37° C., 5% CO2, the luciferase activity was determined by adding 15 μl of Steady Lite Plus substrate (Perkin Elmer) to each well and readout performed on a ViewLux ultraHTS microplate imager (Perkin Elmer). Dose response curves were generated from measurements performed in quadruplicates. Lowest effective concentrations (LEC) values, defined as the concentration that induces an effect which is at least two fold above the standard deviation of the assay, were determined for each compound.

[2] = biological target: T2, human TLR7 (wild type sequence) (Homo sapiens, UniProt Q9NYK1); test: TLR7 cellular NFκB-luc reporter assay, wild type TLR7; format: cell-based; set-up: unit not given here; conditions: lowest effective concentration; for TLR 7 wt LEC: wild type TLR7 (compounds 74 onward)
T2 construct: expressed in transfected cells; host or cells: HEK293
T2 sequence (Q9NYK1 27-1049): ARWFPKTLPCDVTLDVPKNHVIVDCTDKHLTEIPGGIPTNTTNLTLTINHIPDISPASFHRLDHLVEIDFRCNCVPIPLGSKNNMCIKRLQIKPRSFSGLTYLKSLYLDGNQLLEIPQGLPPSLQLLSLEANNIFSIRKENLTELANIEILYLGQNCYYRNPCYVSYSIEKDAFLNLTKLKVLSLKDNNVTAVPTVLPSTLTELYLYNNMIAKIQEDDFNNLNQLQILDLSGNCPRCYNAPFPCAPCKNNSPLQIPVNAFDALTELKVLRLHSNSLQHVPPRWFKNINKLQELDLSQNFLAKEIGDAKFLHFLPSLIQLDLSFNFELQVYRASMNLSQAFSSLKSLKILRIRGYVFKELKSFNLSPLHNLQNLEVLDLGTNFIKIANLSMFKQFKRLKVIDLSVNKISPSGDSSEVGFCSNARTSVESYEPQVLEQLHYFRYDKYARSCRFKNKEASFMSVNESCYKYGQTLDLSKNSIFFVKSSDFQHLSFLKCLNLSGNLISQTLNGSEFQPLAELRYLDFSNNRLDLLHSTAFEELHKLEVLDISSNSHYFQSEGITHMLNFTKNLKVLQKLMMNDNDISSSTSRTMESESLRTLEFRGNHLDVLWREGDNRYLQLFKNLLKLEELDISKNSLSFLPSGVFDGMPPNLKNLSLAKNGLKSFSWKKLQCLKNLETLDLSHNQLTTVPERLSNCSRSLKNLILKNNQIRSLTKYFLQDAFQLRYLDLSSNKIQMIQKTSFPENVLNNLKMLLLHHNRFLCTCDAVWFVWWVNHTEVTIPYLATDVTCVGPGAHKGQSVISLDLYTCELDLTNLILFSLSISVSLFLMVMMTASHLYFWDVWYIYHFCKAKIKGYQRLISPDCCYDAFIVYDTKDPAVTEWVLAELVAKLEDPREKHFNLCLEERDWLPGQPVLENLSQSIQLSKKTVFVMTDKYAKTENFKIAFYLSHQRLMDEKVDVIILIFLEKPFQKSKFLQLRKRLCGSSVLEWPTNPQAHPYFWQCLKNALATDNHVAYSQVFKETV
Method: as §1, §2

[3] = tested on: HCV replicon in Huh-7 luc/neo cells; test: Suppression of HCV replicon replication by conditioned media from compound-treated PBMC; format: cell-based, HCV type 1 b; conditions: Hepatitis C virus; conditioned media from compound-treated PBMC on Huh-7 luc/neo replicon cells (compounds 74 onward); read-out: PBMC HUH-7 EC50
Method: Activation of human TLR7 results in robust production of interferon by plasmacytoid dendritic cells present in human blood. The potential of compounds to induce interferon was evaluated by looking at the antiviral activity in the HCV replicon system upon incubation with conditioned media from peripheral blood mononuclear cells (PBMC). […] The assay utilized the stably transfected cell line Huh-7 luc/neo harboring an RNA encoding a bicistronic expression construct comprising the wild type NS3-NS5B regions of HCV type 1 b translated from an Internal Ribosome Entry Site (IRES) from encephalomyocarditis virus (EMCV), preceded by a reporter gene (Firefly-luciferase) and a selectable marker gene (neoR, neomycine phosphotransferase). The construct is flanked by 5′ and 3′ NTRs (non-translated regions) from HCV type 1 b. Continued culture of the replicon cells in the presence of G418 (neoR) is dependent on the replication of the HCV RNA. The stably transfected replicon cells that replicate HCV RNA autonomously and to high levels, encoding inter alia luciferase, were used for profiling of the conditioned cell culture media.
Briefly, PBMCs were prepared from buffy coats of at least two donors using a standard Ficoll centrifugation protocol. Isolated PBMCs were resuspended in RPMI medium supplemented with 10% human AB serum and 2×10^5 cells/well were dispensed into 384-well plates containing compounds (70 μL total volume). After overnight incubation, 10 μL of supernatant was transferred to 384-well plates containing 2.2×10^3 replicon cells/well in 30 μL (plated the day before). Following 24 hours of incubation, replication was measured by assaying luciferase activity using 40 μL/well Steady Lite Plus substrate (Perkin Elmer) and measured with ViewLux ultraHTS microplate imager (Perkin Elmer). […] Recombinant interferon α-2a (Roferon-A) was used as a standard control compound.

[4] = wild type TLR8 (compounds 1-73)
[5] = wild type TLR7 (compounds 1-73)

SMILES	TLR 8 wt LEC [1]	TLR 7 wt LEC [2]	TLR8-wt_LEC [1, 4]	further results
CCCCNc1nc(N)ncc1OCC(C)(C)O [Compound 105]	22.020	>25		EC50 [3]: 19.1 µM
CCCCNc1nc(N)ncc1OCCCc1ccc(C(F)(F)F)cc1 [Compound 153]		10.640		EC50 [3]: 3.43 µM
CCC(C)[C@H](CCO)Nc1nc(N)ncc1OC (stereo partly shown) [Compound 275]				TLR7-wt_LEC ([2]; wild type TLR7): 10.380
CCCCNc1nc(N)ncc1OCc1ccccc1 [Compound 1]			2.42	TLR7-wt_LEC [2, 5]: 0.90
CCCC[C@H](CO)Nc1nc(N)ncc1OC [Compound 73]			0.80	
CCCCNc1nc(N)ncc1OCc1nccc2ccccc12 [Compound 123]	0.143	0.008		
CCCCNc1nc(N)ncc1OCc1cnccn1 [Compound 199]				TLR8-wt_LEC [1]: 0.218; TLR7-wt_LEC ([2]; wild type TLR7): 0.512
CCCC[C@@H](CO)Nc1nc(N)ncc1OC [Compound 59]			0.36	
CCCCNc1nc(N)ncc1OCc1nccc(OC)c1OC [Compound 180]	0.524	0.135		
CCCCNc1nc(N)ncc1OCCCc1ccccc1C(F)(F)F [Compound 162]	>25	11.850		
CCCC[C@H](CCO)Nc1nc(N)ncc1OC [Compound 229]				TLR7-wt_LEC ([2]; wild type TLR7): >25
CCCCNc1nc(N)ncc1OCc1csc(C)n1 [Compound 191]	0.743	0.286		
CCCCNc1nc(N)ncc1OCc1nn(C)c2ccccc12 [Compound 182]	0.178	0.014		
CCCCNc1nc(N)ncc1OCCC [Compound 5]			4.53	TLR7-wt_LEC [2, 5]: 6.18
CC[C@H](C)[C@@H](CO)Nc1nc(N)ncc1OC [Compound 68]			0.56	
CCCCNc1nc(N)ncc1OCc1cc(C)nn1C [Compound 48]			1.75	
CCCCNc1nc(N)ncc1OCc1nc(C)oc1C [Compound 178]	0.410	0.810		
CCCCNc1nc(N)ncc1OC(C)C [Compound 233]				TLR7-wt_LEC ([2]; wild type TLR7): 10.070
COc1cnc(N)nc1N[C@H](CCO)CC(C)C [Compound 261]				TLR7-wt_LEC ([2]; wild type TLR7): 10.790
CCCCNc1nc(N)ncc1OCc1ccc2ccccc2n1 [Compound 157]	1.110	0.333		

SMILES	TLR 8 wt LEC [1]	TLR 7 wt LEC [2]	TLR8-wt_LEC [1, 4]	further results
CCCC(C)Nc1nc(N)ncc1OC (stereo not shown) [Compound 65]			3.68	TLR7-wt_LEC [2, 5]: 21.59
CCCCNc1nc(N)ncc1OCCCCCc1ccccc1 [Compound 111]		0.257		EC50 [3]: 0.096 µM
C=CCNc1nc(N)ncc1OC [Compound 90]	8.460	>25		
CCCCNc1nc(N)ncc1OCCCc1ccccc1 [Compound 19]			7.94	TLR7-wt_LEC [2, 5]: 1.53
CCCCNc1nc(N)ncc1OCc1nc2ccccc2[nH]1 [Compound 193]	0.654	0.032		
CCC[C@H](CO)Nc1nc(N)ncc1OC [Compound 72]			6.57	
COc1cnc(N)nc1NCCC1CC1 [Compound 91]	20.850	>25		
CCCCNc1nc(N)ncc1OCc1nccc(OC)c1OC [Compound 42]			1.15	
CCCCNc1nc(N)ncc1OCc1ccc2ccccc2n1 [Compound 41]			0.83	
CCCCNc1nc(N)ncc1OCc1cccnn1 [Compound 78]	0.827	0.519		
CCC[C@@H](CO)Nc1nc(N)ncc1OC [Compound 55]			0.16	
COc1cnc(N)nc1NCCCC(F)(F)F [Compound 66]			9.03	
CCCC[C@@H](CCO)Nc1nc(N)ncc1OC [Compound 54]			1.40	
CCCC(CO)Nc1nc(N)ncc1OC (stereo not shown) [Compound 62]			0.55	TLR7-wt_LEC [2, 5]: 21.26
CCCCNc1nc(N)ncc1OCc1cc2ccccn2n1 [Compound 224]				TLR7-wt_LEC ([2]; wild type TLR7): 0.206
CCC[C@@H](CCO)Nc1nc(N)ncc1OC [Compound 57]			1.80	
COc1cnc(N)nc1N[C@H](CO)CC(C)C [Compound 93]	15.880	>25		
CCCCNc1nc(N)ncc1OCc1nc2ccccc2s1 [Compound 222]				TLR7-wt_LEC ([2]; wild type TLR7): 0.277
CCCCNc1nc(N)ncc1OCc1c(C)noc1C [Compound 36]			1.68	
